Test results: US10053461B2 (Hoffmann-La Roche Inc., priority 2015, dated 2018)

What follows are compounds tested on HBsAg (assay: microbe, parasite or virus in culture). Details: Hepatitis B virus, HepG2.2.15.
Description: HepG2.2.15 cells (Acs et al. Proc Natl Acad Sci USA, 84, (1987), 4641-4), a constitutively HBV-expressing cell line were cultured in DMEM+Glutamax-I medium (Invitrogen, Carlsbad, Calif., USA), supplemented with 10% fetal bovine serum (Invitrogen) and G418 (Invitrogen) at a final concentration of 200 mg/L and maintained in 5% CO2 at 37° C.
HepG2.2.15 cells were seeded in duplicate into white, 96-well plates at 1.5×10^4 cells/well. The cells were treated with a three-fold serial dilution series of the compounds in DMSO. The final DMSO concentration in all wells was 1% and DMSO was used as no drug control.
The HBsAg chemiluminescence immunoassay (CLIA) kit (Autobio Diagnostics Co., Zhengzhou, China, Catalog number: CL0310-2) was used to measure the levels of secreted HBV antigens semi-quantitatively. For the detection 50 μL/well culture supernatant was used and HBsAg was quantified using HBsAg chemiluminescence immunoassay (CLIA) kit (Autobio Diagnostics Co., Zhengzhou, China, Catalog number: CL0310-2), 50 μL of the supernatant was transferred to the CLIA assay plate and 50 μL of enzyme conjugate reagent was added into each well. The plates were sealed and gently agitated for 1 hour at room temperature. The supernatant-enzyme-mixture was discarded and wells were washed 6 times with 300 μL of PBS. The residual liquid was removed by plating the CLIA plate right side down on absorbent tissue paper. 25 μL of substrates A and B were added to each well. Luminance was measured using a luminometer (Mithras LB 940 Multimode Microplate Reader) after 10 minutes incubation. Dose-response curves were generated and the IC50 value was extrapolated by using the E-WorkBook Suite (ID Business Solutions Ltd., Guildford, UK). The IC50 was defined as the compound concentration (or conditioned media log dilution) at which HBsAg secretion was reduced by 50% compared to the no drug control.
The compounds of the present invention were tested for their activity to inhibit HBsAg as described herein.

Structure (SMILES)	IC50 [nM]
COCCCOc1cc2c(cc1OC)-c1cc(=O)c(C(=O)O)cn1[C@H]1CCN(C(=O)OCc3ccccc3)C[C@H]21 (relative stereo) [Example 29, Trans-2-((benzyloxy)carbonyl)-11-methoxy-12-(3-methoxypropoxy)-8-oxo-2,3,4,4a,8,13b-hexahydro-1H-benzo[c]pyrido[1,2-a][1,6]naphthyridine-7-carboxylic acid]	152
COc1cc2c(cc1OCc1ccccc1)[C@@H]1CCC(C)(C)[C@@H]1n1cc(C(=O)O)c(=O)cc1-2 [Example 5, (3aR,12bS)-11-(benzyloxy)-10-methoxy-3,3-dimethyl-7-oxo-1,2,3,3a,7,12b-hexahydrocyclopenta[c]pyrido[2,1-a]isoquinoline-6-carboxylic acid]	308
COc1cc2c(cc1OCC(C)C)[C@H]1CCC(C)(C)[C@H]1n1cc(C(=O)O)c(=O)cc1-2 (relative stereo) [Example 9, Cis-11-isobutoxy-10-methoxy-3,3-dimethyl-7-oxo-1,2,3,3a,7,12b-hexahydrocyclopenta[c]pyrido[2,1-a]isoquinoline-6-carboxylic acid]	1
CCc1cc2c(cc1OC)-c1cc(=O)c(C(=O)O)cn1[C@H]1[C@@H]2CCC1(C)C [Example 39]	20
COc1cc2c(cc1OCC(C)(C)CO)[C@H]1CCC(C)(C)[C@H]1n1cc(C(=O)O)c(=O)cc1-2 (relative stereo) [Example 14, Cis-11-(3-hydroxy-2,2-dimethylpropoxy)-10-methoxy-3,3-dimethyl-7-oxo-1,2,3,3a,7,12b-hexahydrocyclopenta[c]pyrido[2,1-a]isoquinoline-6-carboxylic acid]	3
COc1cc2c(cc1OCc1ccccc1)[C@@H]1CCCC[C@@H]1n1cc(C(=O)O)c(=O)cc1-2 (relative stereo) [Example 32, cis-12-benzyloxy-11-methoxy-8-oxo-1,2,3,4,4a,13b-hexahydropyrido[1,2-f]phenanthridine-7-carboxylic acid]	44
COc1cc2c(cc1OCCCN1CCOCC1)[C@H]1CCC(C)(C)[C@H]1n1cc(C(=O)O)c(=O)cc1-2 (relative stereo) [Example 15, Cis-10-methoxy-3,3-dimethyl-11-(3-morpholinopropoxy)-7-oxo-1,2,3,3a,7,12b-hexahydrocyclopenta[c]pyrido[2,1-a]isoquinoline-6-carboxylic acid]	6
COc1cc2c(cc1OCCCSC)[C@H]1CCC(C)(C)[C@H]1n1cc(C(=O)O)c(=O)cc1-2 (relative stereo) [Example 20, Cis-10-methoxy-3,3-dimethyl-11-(3-(methylthio)propoxy)-7-oxo-1,2,3,3a,7,12b-hexahydrocyclopenta[c]pyrido[2,1-a]isoquinoline-6-carboxylic acid]	2
COc1cc2c(cc1OCCCO)[C@H]1CCC(C)(C)[C@H]1n1cc(C(=O)O)c(=O)cc1-2 (relative stereo) [Example 13, Cis-11-(3-hydroxypropoxy)-10-methoxy-3,3-dimethyl-7-oxo-1,2,3,3a,7,12b-hexahydrocyclopenta[c]pyrido[2,1-a]isoquinoline-6-carboxylic acid]	5
COCCOc1cc2c(cc1OC)-c1cc(=O)c(C(=O)O)cn1[C@H]1[C@@H]2CCC1(C)C (relative stereo) [Example 11, Cis-10-methoxy-11-(2-methoxyethoxy)-3,3-dimethyl-7-oxo-1,2,3,3a,7,12b-hexahydrocyclopenta[c]pyrido[2,1-a]isoquinoline-6-carboxylic acid]	4
COCCCOc1cc2c(cc1OC)-c1cc(=O)c(C(=O)O)cn1[C@@H]1CCS(=O)(=O)C[C@@H]21 (relative stereo) [Example 37, Trans-11-methoxy-12-(3-methoxypropoxy)-8-oxo-1,3,4,4a,8,13b-hexahydropyrido[2,1-a]thiopyrano[4,3-c]isoquinoline-7-carboxylic acid 2,2-dioxide]	2200
COc1cc2c(cc1OCCCC#N)[C@H]1CCC(C)(C)[C@H]1n1cc(C(=O)O)c(=O)cc1-2 (relative stereo) [Example 12, Cis-11-(3-cyanopropoxy)-10-methoxy-3,3-dimethyl-7-oxo-1,2,3,3a,7,12b-hexahydrocyclopenta[c]pyrido[2,1-a]isoquinoline-6-carboxylic acid]	4
COc1cc2c(cc1OCCCN1CCCC1)[C@H]1CCC(C)(C)[C@H]1n1cc(C(=O)O)c(=O)cc1-2 (relative stereo) [Example 16, Cis-10-methoxy-3,3-dimethyl-7-oxo-11-(3-(pyrrolidin-1-yl)propoxy)-1,2,3,3a,7,12b-hexahydrocyclopenta[c]pyrido[2,1-a]isoquinoline-6-carboxylic acid]	128
COc1cc2c(cc1OCCCN1CCCC1=O)[C@H]1CCC(C)(C)[C@H]1n1cc(C(=O)O)c(=O)cc1-2 (relative stereo) [Example 17, Cis-10-methoxy-3,3-dimethyl-7-oxo-11-(3-(2-oxopyrrolidin-1-yl)propoxy)-1,2,3,3a,7,12b-hexahydrocyclopenta[c]pyrido[2,1-a]isoquinoline-6-carboxylic acid]	25
COCCCOc1cc2c(cc1OC)-c1cc(=O)c(C(=O)O)cn1[C@@H]1CCSC[C@@H]21 (racemic) [Example 35, Trans-11-methoxy-12-(3-methoxypropoxy)-8-oxo-1,3,4,4a,8,13b-hexahydropyrido[2,1-a]thiopyrano[4,3-c]isoquinoline-7-carboxylic acid]	110
COc1cc2c(cc1OCCCCCCNS(C)(=O)=O)[C@H]1CCC(C)(C)[C@H]1n1cc(C(=O)O)c(=O)cc1-2 (relative stereo) [Example 26, Cis-10-methoxy-3,3-dimethyl-11-((6-(methylsulfonamido)hexyl)oxy)-7-oxo-1,2,3,3a,7,12b-hexahydrocyclopenta[c]pyrido[2,1-a]isoquinoline-6-carboxylic acid]	2
COCCCOc1cc2c(cc1OC)-c1cc(=O)c(C(=O)O)cn1[C@H]1[C@H]2CCC1(C)C (relative stereo) [Example 1, Trans-10-methoxy-11-(3-methoxypropoxy)-3,3-dimethyl-7-oxo-1,2,3,3a,7,12b-hexahydrocyclopenta[c]pyrido[2,1-a]isoquinoline-6-carboxylic acid]	10
COc1cc2c(cc1OCc1ccccc1)[C@H]1CCCC[C@@H]1n1cc(C(=O)O)c(=O)cc1-2 (racemic) [Example 31, Trans-12-benzyloxy-11-methoxy-8-oxo-1,2,3,4,4a,13b-hexahydropyrido[1,2-f]phenanthridine-7-carboxylic acid]	120
COc1cc2c(cc1C)[C@H]1CCC(C)(C)[C@H]1n1cc(C(=O)O)c(=O)cc1-2 (relative stereo) [Example 38, Cis-10-methoxy-3,3,11-trimethyl-7-oxo-1,2,3,3a,7,12b-hexahydrocyclopenta[c]pyrido[2,1-a]isoquinoline-6-carboxylic acid]	36
